Experimental findings from ChEMBL document CHEMBL1201862, “PubChem BioAssay data set” (2004) are described below.

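Growth conditions: 96-well plates. Treatment: test compound, 48 hours, 5 concentrations. Analysis: linear interpolation between bracketing concentrations; unreached endpoints set to highest concentration. GI50 = concentration required for 50% inhibition of growth.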 The source made the active and inactive calls. Cut-off read from the data, not from the text of the source: active = GI50 up to about 1.1 µM and inactive = higher. Some results are limits rather than exact numbers.

Some test systems named below: SF-539; K562; LOX IMVI; SK-MEL-2; IGROV-1; HOP-62; NCI-H23; OVCAR-5; KM12; SK-MEL-5; M14; NCI-H226; UACC-257; SNB-19; COLO 205; SNB-75; MOLT-4; HCT-116; MDA-MB-231.
Test in all cases: DTP human tumour cell line panel, 48 h

The term GI50 denotes the concentration that inhibits growth by half.

Regarding `C[C@@]1(O)CC[C@]2(C)C3CCCC3[C@H]12` (some centres not stated), the GI50 in the experiment with SF-539, with K562, with LOX IMVI, with SK-MEL-2, in the experiment on IGROV-1 and in the experiment with HOP-62 was > 100 µM (inactive) in each case. Besides, the GI50 in the experiment with NCI-H23, with OVCAR-5, in the experiment on KM12, in the experiment with SK-MEL-5, in the experiment with M14 and in the experiment on NCI-H226 was > 100 µM (inactive) each time. Moreover, the GI50 with UACC-257, in the experiment on SNB-19, with COLO 205, in the experiment with SNB-75, in the experiment on MOLT-4 and with HCT-116 was > 100 µM (inactive) each time.

Take `COc1ccccc1C12OC(=O)C1(C)Oc1ccccc1C2=O` (configuration not stated): the GI50 with SF-539 was > 100 µM (inactive); with K562, > 100 µM (inactive); with LOX IMVI, 26.8 µM (inactive); with SK-MEL-2 it was > 100 µM (inactive); in the experiment with IGROV-1, > 100 µM (inactive); in the experiment on HOP-62, > 100 µM (inactive). The GI50 with NCI-H23, in the experiment with OVCAR-5, with KM12, with SK-MEL-5, with M14 and with NCI-H226 was > 100 µM (inactive) in each case. Also, the GI50 was > 100 µM (inactive) with UACC-257; > 100 µM (inactive) with SNB-19; > 100 µM (inactive) with COLO 205; 34.8 µM (inactive) with SNB-75; > 100 µM (inactive) with MOLT-4; > 100 µM (inactive) with HCT-116.

As for `N#Cc1c(C[n+]2ccccc2)c2ccccc2oc1=O`, the GI50 with SF-539, with K562, in the experiment on LOX IMVI, with SK-MEL-2, in the experiment with IGROV-1 and in the experiment with HOP-62 was > 100 µM (inactive) each time. For the same compound, the GI50 in the experiment with NCI-H23, in the experiment on OVCAR-5, with KM12, with SK-MEL-5, in the experiment on M14 and in the experiment on NCI-H226 was > 100 µM (inactive) in each case. Also, the GI50 with UACC-257, in the experiment on SNB-19, in the experiment on COLO 205, in the experiment on SNB-75, in the experiment with MOLT-4 and in the experiment with HCT-116 was > 100 µM (inactive) each time.

For `CN(C)C(=S)/N=c1\ssc(=S)n1Cc1ccncc1`, the GI50 in the experiment with SF-539 is 21.2 µM (inactive); in the experiment with K562, 18.3 µM (inactive); in the experiment with LOX IMVI, 19.8 µM (inactive); in the experiment on SK-MEL-2, 17.2 µM (inactive); in the experiment with IGROV-1 it was 17.9 µM (inactive); in the experiment with HOP-62 it was 24.9 µM (inactive). Also, the GI50 with NCI-H23 was 23.9 µM (inactive); with OVCAR-5 it was 40.8 µM (inactive); in the experiment with KM12, 4.79 µM (inactive); with SK-MEL-5, 4.78 µM (inactive); in the experiment with M14, 20.6 µM (inactive); in the experiment with NCI-H226, > 100 µM (inactive). Further, the GI50 in the experiment with UACC-257 was 26.7 µM (inactive); in the experiment with SNB-19, 29.2 µM (inactive); in the experiment on COLO 205, > 100 µM (inactive); in the experiment on SNB-75 it was 13.6 µM (inactive); with MOLT-4, 14 µM (inactive); in the experiment with HCT-116 it was 18.3 µM (inactive).

For the compound `Cc1ccc2oc3c(c(Br)c(Br)n3C)c(=O)c2c1`, the GI50 in the experiment with SF-539 is 20 µM (inactive); in the experiment with K562, > 100 µM (inactive); with LOX IMVI it was 31.3 µM (inactive); in the experiment on SK-MEL-2 it was 25.8 µM (inactive); with IGROV-1, 10.5 µM (inactive); with HOP-62 it was 17 µM (inactive). Also, the GI50 in the experiment with NCI-H23 is 19.5 µM (inactive); in the experiment with OVCAR-5 it was 41.6 µM (inactive); in the experiment with KM12, > 100 µM (inactive); in the experiment on SK-MEL-5 it was 27.7 µM (inactive); with M14, 31.3 µM (inactive); with NCI-H226, 15.6 µM (inactive). Also, the GI50 in the experiment on UACC-257 was 65.5 µM (inactive); in the experiment with SNB-19 it was 17.8 µM (inactive); with COLO 205, > 100 µM (inactive); with MDA-MB-231, 20.3 µM (inactive); in the experiment on MOLT-4, > 100 µM (inactive); with HCT-116 it was 15.7 µM (inactive).

Regarding `COc1cc([C@@H]2c3cc4c(cc3[C@@H](NC(=O)c3ccc([N+](=O)[O-])cc3)C3COC(=O)[C@@H]32)OCO4)cc(OC)c1O` (some centres not stated), the GI50 in the experiment with SF-539 is 0.275 µM (active); with K562, 0.889 µM (active); with LOX IMVI it was 0.318 µM (active); in the experiment with SK-MEL-2, 2.83 µM (inactive); in the experiment with IGROV-1, 0.261 µM (active); with HOP-62 it was 0.128 µM (active). The GI50 in the experiment with NCI-H23 is 0.258 µM (active); in the experiment with OVCAR-5, 1.87 µM (inactive); in the experiment with KM12 it was 1.08 µM (active); in the experiment on SK-MEL-5, 0.361 µM (active); in the experiment on M14, 0.653 µM (active); in the experiment on NCI-H226, 0.104 µM (active). Further, the GI50 was 3.16 µM (inactive) in the experiment with UACC-257; 0.315 µM (active) in the experiment on SNB-19; 2.13 µM (inactive) in the experiment on COLO 205; 0.809 µM (active) in the experiment on SNB-75; < 0.01 µM (active) in the experiment with MOLT-4; 0.678 µM (active) in the experiment on HCT-116.

Regarding `O=C(c1ccccc1)C1(Br)S(=O)(=O)OCCOS1(=O)=O`, the GI50 with SF-539, with K562, with LOX IMVI, in the experiment with SK-MEL-2, in the experiment on IGROV-1 and in the experiment with HOP-62 was > 100 µM (inactive) in each case. Also, the GI50 in the experiment on NCI-H23, in the experiment on OVCAR-5, in the experiment on SK-MEL-5, with M14, in the experiment on NCI-H226 and in the experiment with UACC-257 was > 100 µM (inactive) in each case. The GI50 in the experiment on SNB-19, with COLO 205, in the experiment with SNB-75, in the experiment on MOLT-4 and in the experiment on HCT-116 was > 100 µM (inactive) each time.

For the compound `O=C(NCCNCCO)c1cccc2ccc(-c3ccccc3)nc12`, the GI50 with SF-539 is 3.63 µM (inactive); in the experiment on K562, 5.97 µM (inactive); in the experiment with LOX IMVI, 2.7 µM (inactive); with SK-MEL-2, 7.74 µM (inactive); with IGROV-1, 3.12 µM (inactive); in the experiment with HOP-62 it was 10.3 µM (inactive). Further, the GI50 with NCI-H23 is 4.68 µM (inactive); with OVCAR-5, 4.8 µM (inactive); in the experiment on KM12, 5.68 µM (inactive); in the experiment on SK-MEL-5, 3.59 µM (inactive); in the experiment on M14, 5.28 µM (inactive); with NCI-H226, 4.46 µM (inactive). In addition, the GI50 in the experiment with UACC-257 is 3.47 µM (inactive); with SNB-19, 6.49 µM (inactive); in the experiment with COLO 205, 3.1 µM (inactive); in the experiment with SNB-75, 10.4 µM (inactive); in the experiment on MOLT-4 it was 1.54 µM (inactive); with HCT-116, 2.73 µM (inactive).

`COc1ccc(N2C(=O)C3CC(c4ccc(Br)cc4)c4c([nH]c5ccccc45)C3C2=O)cc1` (configuration not stated): the GI50 in the experiment on SF-539 was 3.52 µM (inactive); in the experiment on K562, 5.37 µM (inactive); in the experiment with LOX IMVI, 4.69 µM (inactive); with SK-MEL-2 it was 60.7 µM (inactive); in the experiment on IGROV-1, 10.6 µM (inactive); with HOP-62, 3.91 µM (inactive). Besides, the GI50 in the experiment on NCI-H23 was 11.4 µM (inactive); with OVCAR-5, 22.6 µM (inactive); with KM12 it was 13.1 µM (inactive); in the experiment with SK-MEL-5 it was 16.5 µM (inactive); with M14, 19.5 µM (inactive); in the experiment on NCI-H226 it was 18.6 µM (inactive). For the same compound, the GI50 in the experiment on UACC-257 is 17.3 µM (inactive); in the experiment on SNB-19, 3.43 µM (inactive); in the experiment on COLO 205, 9.02 µM (inactive); with SNB-75 it was 9.12 µM (inactive); in the experiment with MOLT-4, 10.8 µM (inactive); in the experiment on HCT-116, 6.4 µM (inactive).

Take `CC[C@]1(Cc2ccc(OC)c(OC)c2)[C@@H]2C[C@@H](C(=O)OC)ON2O[C@H](OC2CCCC2(c2ccccc2)c2ccccc2)[C@@H]1OC(C)=O` (some centres not stated): the GI50 with K562, in the experiment on LOX IMVI, in the experiment with SK-MEL-2, in the experiment on IGROV-1, with HOP-62 and in the experiment on NCI-H23 was > 100 µM (inactive) each time. Also, the GI50 in the experiment with OVCAR-5, with KM12, in the experiment on SK-MEL-5, in the experiment on M14, in the experiment on NCI-H226 and in the experiment on UACC-257 was > 100 µM (inactive) in each case. In addition, the GI50 in the experiment with SNB-19, in the experiment on COLO 205, with MDA-MB-231, with SNB-75, in the experiment on MOLT-4 and in the experiment on HCT-116 was > 100 µM (inactive) in each case.

Take `COc1ccc(/C=C\c2cc(OC)c(OC)c(OC)c2)cc1`: the GI50 with SF-539 was 0.000389 µM (active); in the experiment on K562, 0.000102 µM (active); in the experiment on LOX IMVI it was 0.000632 µM (active); in the experiment on SK-MEL-2, < 0.01 µM (active); in the experiment on IGROV-1, 0.0387 µM (active); in the experiment with HOP-62, 0.1 µM (active). The GI50 in the experiment with NCI-H23 is 0.000357 µM (active); with OVCAR-5, 43.5 µM (inactive); in the experiment with KM12 it was 0.000124 µM (active); in the experiment on SK-MEL-5 it was < 0.0001 µM (active); with M14 it was 0.00024 µM (active); in the experiment on NCI-H226, 0.000499 µM (active). Moreover, the GI50 was < 0.01 µM (active) in the experiment on UACC-257; 0.0013 µM (active) in the experiment with SNB-19; 0.0291 µM (active) in the experiment on COLO 205; 0.000237 µM (active) in the experiment with SNB-75; 0.000506 µM (active) with MOLT-4; 0.000279 µM (active) with HCT-116.
